In US20150182583A1, “METHODS FOR TREATMENT AND PREVENTION OF TAUOPATHIES BY INHIBITING ENDOTHELIN RECEPTORS” (Board of Regents, The University of Texas System, priority 2012, published 2015):
Entries after “also recorded” stand apart in the source; their conditions may differ. Non-standard residues stand in square brackets, D forms with d. Residues, ends and D or L forms follow the SMILES beside them. dGly(5-dibenzosuberyl) = N[C@@H](C(=O)O)C1c2ccccc2CCc2ccccc21

Legend:
TAU [1] = test: Mouse model of brain trauma (parenchymal wound), TAU immunofluorescent staining; assay type: in vivo; conditions: 10 mg/kg/day i.p. for 5 days prior to wounding, continued 3 days after; brains harvested 3 days after wounding
Description: Brain parenchymal wound was created by inserting a needle (32 G-21 G) by stereotactic injection unit. In brief, a mouse was anesthetized with Nembutal ([…]) and fixed in the stereotactic injection unit. Skin incision was made in the forehead and a hole was made in the calvaria with a 21 G needle. Injection needle was inserted into the brain parenchyma (4-mm depth) and withdrawn. Hole was blocked with bone wax and skin incision was closed with skin staples.
(§1) A mouse model of brain trauma was used to evaluate the effect of a dual endothelin receptor antagonist (PD 145065) on TAU expression after a brain trauma. A parenchyma mouse model of brain trauma was used such that mice received a stereotaxically administered wound to the brain Immunochemistry was performed on brain samples to evaluate GFAP and TAU expression.
(§2) The mice were euthanatized 1, 2, or 4 days after creating the wound in the brain parenchyma. The brains were removed, fixed in formalin and stained for GFAP or (GFAP and TAU) using immunofluorescent staining.
(§3) Mice were pretreated with PD145065 10 mg/kg/day i.p. injection for 5 days prior to brain wounding. Control mice received saline injections. Treatment continued for 3 days after wounding. The brains were harvested 3 days after wounding and immunofluorescent staining immunohistochemistry experiments were performed.

ETA and ETB receptors = test: Immunohistochemistry of endothelin receptor phosphorylation (with the protection assay); assay type: cell-based; conditions: FIG. 15
Description: Next the inventor used the compound PD 145065, which is a dual endothelin receptor inhibitor (antagonist), in further experiments. […] PD145065 may be administered orally to mice. Based on the in vitro data, it is anticipated that PD145065 may be used to decrease TAU in the brain in vivo.

GFAP = test: Mouse model of brain trauma, GFAP staining; assay type: in vivo; conditions: 10 mg/kg/day i.p. for 5 days prior to wounding, continued 3 days after
Protocol: as §1, §2, §3

[2] = system: ET-1 stimulated astrocytes; test: Real-time PCR of APOE/TAU mRNA in ET-1 stimulated astrocytes; assay type: cell-based, murine; conditions: ET-1 (100 nM) 24 hr; PD145065 (1 μM) added 2 hrs prior to ET-1; FIG. 12
Protocol: FIG. 12: Expression level of APOE and TAU expression level in control astrocytes and astrocytes treated with BQ123 plus […] or PD145065. Treatment groups were as follows: Control, ET-1 (100 nM), ET-1+BQ123/BQ788 (1 μM), ET-1+PD145065 (1 μM). Cells were treated with ET-1 for 24 hr. BQ123, BQ788 or PD145065 was added 2 hrs prior to ET-1 stimulation.
(§4) To determine whether ETs upregulation in astrocytes culture with tumor cells, we performed in vitro coculture experiments. Astrocytes and NIH 3T3 fibroblasts were transfected with green fluorescent protein (GFP) genes. […] RT-PCR was performed using TaqMan® Universal PCR MasterMix and quantified with an ABI 7500 real time PCR system (Applied Biosystems, Foster City, Calif.). […] Relative mRNA expression was calculated according to the AACt method, and expressed as mean±S.D. of mRNA relative to that of control.
as §4, with “Astrocytes” for “To determine whether ETs upregulation in astrocytes culture with tumor cells, we performed in vitro coculture experiments. Astrocytes”, “method” for “method,”

[3] = Body weight of mice treated with paclitaxel with or without PD145065; assay type: in vivo, mouse
Protocol: Studies to evaluated prevention and/or treatment of chemo-brain by PD145065 were performed. Female athymic nude mice (NCI-nu) were used in these studies. Mice were used in these experiments in accordance with institutional guidelines when they were 14-16 weeks old. Mice were randomized as follows;
Mice showing weight loss, dehydration (poor skin tugor) or poor movement (poor oral intake, decreased ambulation, etc.) were defined as symptomatic mice.
Prevention and/or treatment of Chemo-brain by PD145065 was evaluated via the following protocol. Treatment continued for 12 weeks and treatment and prevention groups were defined as follows: […]
(1) Treatment group—mice receiving TMZ or taxol (group 3 or 4) and showing symptoms defined above for two consecutive weeks began to receive PD145065;
(3) Prevention group—mice were receiving (PD+TMZ) or (PD+taxol) for 12 weeks (group 5 or 6).

TAU [4] = test: Mouse model of chemo-brain (paclitaxel or TMZ), TAU immunohistochemistry; assay type: in vivo; conditions: for TAU production/expression in brain caused by the chemotherapeutic: mice bearing brain cancer (LN229 GBM) or normal mice, paclitaxel 8 mg/kg i.p. twice per week, TMZ 7.5 mg/kg p.o. daily
Protocol: The following methods were used to test for the in vivo effect of a dual endothelin receptor on a mouse model of chemo-brain. PD145065: SIGMA (SCP0143, 5 mg) was reconstituted in PBS containing 0.1% BSA. Temozolomide (TMZ): SIGMA (T2577-100 MG), was reconstituted in DMSO (10 mg/mL) with sonication and diluted in HBSS before treatment TAXOL (paclitaxel): Hospira (NDC 61703-342-09, 6 mg/mL) was diluted in saline before treatment. Mice were treated for 6 weeks with either TMZ (7.5 mg/kg, p.o., daily) or paclitaxel (8 mg/kg, i.p., twice per week) with or without PD145065 (10 mg/kg, i.p., daily). Treatment groups were as follows:
Mice were euthanized and the brains were collected and frozen (OCT) or placed in formalin and embedded in paraffin and then processed for IHC. Female nude mice were treated with Taxol (8 mg/kg) i.p. twice per week for six weeks. […] Female nude mice were treated orally with 7.5 mg/kg TMZ every day for six weeks.

TAU [5] = test: Chronic hypoxia (hypoxia chamber) in mice, TAU immunohistochemistry; assay type: in vivo, mouse; conditions: hypoxia chamber 1-3 days; daily i.p. injections, or pretreatment 7 days before 48 hours of hypoxia
Protocol: (§5) Mice were placed in a sealed plexiglass chamber with controlled input of oxygen-nitrogen gas to establish an oxygen level of 5.705% oxygen. One to 3 days later, the mice are euthanized or placed in room air (normoxia). The brains are harvested, fixed in formalin, or frozen for histology/immunohistochemistry examination. Staining for GFAP (astrocytes), TAU, endothelin receptor A or B (phosphorylation) was carried out.
Mice were placed in a hypoxia chamber for 1-3 days are taken out and divided into 2 groups: (1) treated with PD145065 (dual endothelin receptor inhibitor), or (2) saline. Treatments are by daily i.p. injections. The brains of control and treated mice are harvested 2-5 days later and processed for histological examination Immunohistochemistry for GFAP, TAU, ETAR, and ETBR (phosphorylation) was carried out.
as §5, with “The following methods were used for the chronic hypoxia (hypoxia chamber) experiments. Mice” for “Mice”, “were” for “are”, “phosphorylation” for “(phosphorylation)”, “out. […]” for “out.”

MDA231 = test: Tumor cell-astrocyte protection assay (MDA231 protection assay); assay type: cell-based, human; conditions: FIG. 15
[6] = system: endothelin receptors A and B; test: Mouse model of brain trauma, endothelin receptor phosphorylation; assay type: in vivo; conditions: 10 mg/kg/day i.p. for 5 days prior to wounding, continued 3 days after

Row | SMILES | TAU expression / TAU positive cells in brain after wound (TAU [1]) | phosphorylation of ETA and ETB receptors (ETA and ETB receptors) | GFAP in wounded brain (GFAP) | APOE/TAU mRNA expression [2] | weight loss associated with paclitaxel, prevention (co-administration) ([3]; PD 10 mg/kg i.p. daily plus taxol 8 mg/kg i.p. twice per week, FIG. 23) | weight loss associated with paclitaxel, treatment group ([3]; PD145065 given to mice receiving paclitaxel beginning on day 49, FIG. 22) | TAU expression in brain of mice treated with paclitaxel or TMZ (TAU [4]; PD145065 10 mg/kg i.p. daily, 6 weeks, TMZ 7.5 mg/kg p.o. daily or paclitaxel 8 mg/kg i.p. twice per week) | TAU expression in brain resulting from hypoxia (TAU [5]) | blocking the ability of astrocytes protection of tumor cells from chemotherapy (MDA231) | phosphorylation of endothelin receptors A and B (ETAR, ETBR) in wounded brain [6] | body weight of paclitaxel-treated mice ([3]; paclitaxel alone, FIG. 22) | TAU production/expression in brain caused by the chemotherapeutic (TAU [4]) | TAU production/expression in brain caused by the chemotherapeutic (TAU [4]; listed as Taxol) | TAU production/expression in brain caused by the chemotherapeutic (TAU [4]; listed as TMZ)
1 | CC[C@H](C)[C@H](NC(=O)[C@H](CC(=O)O)NC(=O)[C@H](CC(C)C)NC(=O)[C@H](NC(C)=O)C1c2ccccc2CCc2ccccc21)C(=O)N[C@H](C(=O)N[C@@H](Cc1c[nH]c2ccccc12)C(=O)O)[C@@H](C)CC [PD145065, N-Acetyl-α-[10,11-Dihydro-5H-dibenzo[a,d]cycloheptadien-5-yl]-D-Gly-Leu-Asp-Ile-Ile-Trp] (Ac-[dGly(5-dibenzosuberyl)]LDIIW-OH) | not in brains of mice pretreated; also recorded: significantly diminished or eliminated; also recorded: negative; also recorded: reduced tau expression | can prevent phosphorylation | unchanged; also recorded: contain activated (GFAP-positive) astrocytes | observed to have an effect | completely inhibit the weight loss | reversal of the weight loss | significantly reduced TAU expression | inhibited TAU expression; also recorded: significantly lower than in the brains of control mice; also recorded: reduced tau expression; also recorded: significant decrease in TAU expression | as effective as the combination of BQ123 and BQ788 | inhibited phosphorylation; also recorded: reduced phosphorylation or be not phosphorylated |  |  |  | 
2 | CC(=O)O[C@H]1C(=O)[C@@]2(C)[C@H]([C@H](OC(=O)c3ccccc3)[C@]3(O)C[C@H](OC(=O)[C@H](O)[C@@H](NC(=O)c4ccccc4)c4ccccc4)C(C)=C1C3(C)C)[C@]1(OC(C)=O)CO[C@@H]1C[C@@H]2O [paclitaxel] |  |  |  |  |  |  |  |  |  |  | loss of weight | result in the production of TAU | high expression of TAU | 
3 | Cn1nnc2c(C(N)=O)ncn2c1=O [temozolomide] |  |  |  |  |  |  |  |  |  |  |  | result in the production of TAU |  | high expression of TAU
